This note sets out measurements from US20170081357A1, “[…] ACTIVE 17-NITROGEN SUBSTITUTED ESTRATREINTHIAZOLE DERIVATIVES AS INHIBITORS OF 17.BETA-HYDROXYSTEROID DEHYDROGENASE” (FORENDO PHARMA LTD, priority 2013, published 2017).

Molecules are shown by their SMILES.

Series [1] is described as follows: Metabolic stability assay, human liver microsome and homogenate incubations. The conditions noted are these: human liver homogenate or microsomes, LC/PDA/TOF-MS. In kind it is in vitro ADME. As for the experimental part: The in vitro metabolic stability of the compounds of the invention was determined for exemplified compounds using human liver microsome and homogenate incubations. The incubation time points used with or without appropriate cofactors were 0 min and 60 min. Samples were collected at both time points and substrates were detected using LC/PDA/TOF-MS. In vitro metabolic stability (% remaining after 60 min in human liver homogenate or microsomes) of the compounds were calculated and the results are summarized in Table 3.
A general note: Microsomes from liver hold many membrane-bound enzymes, among them those of drug oxidation.

Series [2] concerns the target T1, recombinant human 17β-HSD1 (Homo sapiens, UniProt P14061).
T1 construct: made in house; host or cells: Sd9 (Sf9) insect cells, baculovirus (Bac to Bac Expression System); microsomal fraction
T1 sequence (P14061 1-328): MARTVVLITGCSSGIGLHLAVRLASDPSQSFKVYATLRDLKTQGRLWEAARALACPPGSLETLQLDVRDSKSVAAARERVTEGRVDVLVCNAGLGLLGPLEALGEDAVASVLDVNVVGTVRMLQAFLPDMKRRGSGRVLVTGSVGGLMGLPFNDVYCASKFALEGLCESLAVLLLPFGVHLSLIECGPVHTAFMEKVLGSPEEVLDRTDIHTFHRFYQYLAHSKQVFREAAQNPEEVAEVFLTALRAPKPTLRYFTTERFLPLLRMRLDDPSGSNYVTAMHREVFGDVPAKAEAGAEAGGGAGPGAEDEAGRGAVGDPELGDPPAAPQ
Description: Inhibition of recombinant human 17β-HSD1 (conversion of 3H-estrone to estradiol, HPLC). In kind it is biochemical. The conditions noted are these: inhibitor 1 μM; 30 nM estrone, 1 mM NADPH, 30 min at RT; read-out: 17β-HDS1 Inhibition % at 1 μM. Here is the method: 17β-HSD1 production and isolation: Recombinant baculovirus was generated by the “Bac to Bac Expression System” (Invitrogen). Recombinant bacmid was transfected to Sd9 insect cells using “Cellfectin Reagent” (Invitrogen). 60 h later cells were harvested; the microsomal fraction was isolated as described by Puranen, T. J., Poutanen, M. H., Peltoketo, H. E., Vihko, P. T. and Vihko, R. K. (1994) Site-directed mutagenesis of the putative active site of human 17 β-hydroxysteroid dehydrogenase type 1. Biochem. J. 304: 289-293. Aliquots were stored frozen until determination of enzymatic activity.
Assay—Inhibition of recombinant human 17β-HSD1: Recombinant protein (1 μg/ml) was incubated in 20 mM KH2PO4 pH 7.4 with 30 nM estrone (including 800 000 cpm/ml of ^3H-estrone) and 1 mM NADPH for 30 min at RT, in the presence of the potential inhibitor at concentrations 1 μM or 0.1 μM. Inhibitor stock solutions were prepared in DMSO. Final concentration of DMSO was adjusted to 1% in all samples. The enzyme reaction was stopped by addition of 10% trichloroacetic acid (final concentration). Samples were centrifuged in a microtiter plate at 4000 rpm for 10 min. Supernatants were applied to reverse phase HPLC on a Waters Symmetry C18 column, equipped with a Waters Sentry Guard column. Isocratic HPLC runs were performed at RT at a flow rate of 1 ml/min in acetonitrile:water 48:52 as running solvent. Radioactivity was monitored in the eluate by a Packard Flow Scintillation Analyzer. Total radioactivity for estrone and estradiol were determined in each sample and percent conversion of estrone to estradiol was calculated according to the following formula:
(§1) Percent inhibition was calculated flowingly: % inhibition=100−% conversion

In series [3] the target is T2, recombinant human 17β-HSD2 (Homo sapiens, UniProt P37059).
T2 construct: made in house; host or cells: Sd9 (Sf9) insect cells, baculovirus (Bac to Bac Expression System); fractionated cell extract
T2 sequence (P37059 1-387): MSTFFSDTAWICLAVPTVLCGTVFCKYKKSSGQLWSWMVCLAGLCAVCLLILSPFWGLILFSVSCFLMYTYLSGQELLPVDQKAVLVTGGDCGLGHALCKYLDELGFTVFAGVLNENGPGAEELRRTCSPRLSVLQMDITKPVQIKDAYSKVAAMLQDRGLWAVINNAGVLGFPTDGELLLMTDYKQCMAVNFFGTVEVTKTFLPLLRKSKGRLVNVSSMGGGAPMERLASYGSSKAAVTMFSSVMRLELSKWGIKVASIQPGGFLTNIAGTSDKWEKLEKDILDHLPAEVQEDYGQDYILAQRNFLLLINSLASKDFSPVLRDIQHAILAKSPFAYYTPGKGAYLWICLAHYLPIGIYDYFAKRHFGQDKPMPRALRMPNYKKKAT
Description: Inhibition of recombinant human 17β-HSD2 (conversion of 3H-estradiol to estrone, HPLC). The note with it: inhibitor 1 μM; 50 nM estradiol, 1 mM NADH, 30 min at RT. In kind it is biochemical. Here is the method:
17β-HSD2 production and isolation: Similarly to 17β-HSD1 the Recombinant baculovirus was generated by the “Bac to Bac Expression System” (Invitrogen). Recombinant bacmid was transfected to Sd9 insect cells using “Cellfectin Reagent” (Invitrogen). 60 h later cells were harvested and supernatant were fractionated by the following protocol: • cells were dissolved into 40 ml of A-buffer (40 mM TRIS, pH8.0, 20% glycerol, 20 μM NAD, 0.4 mM PMSF, 150 mM NaCl, 0.5% dodecyl-β-maltoside+protease inhibitor cocktail) • cells were sonicated • lysate was incubated on ice for 15 min • lysate was centrifuged 5000 rpm 15 min, +4° C. • centrifugation of the supernatant 180 000 g 30 min, +4° C. • pellet was dissolved into 8 ml of A-buffer • not resuspended material was removed by centrifugation 5000 rpm 15 min, +4° C. • the clear supernatant was divided into 100 μl aliquots and were stored frozen until determination of enzymatic activity.
The amount of 17β-HSD2 was analysed by immunoblotting and total protein concentration of each extract batch was determined.
Assay—Inhibition of recombinant human 17β-HSD2: Recombinant protein (4 μg/ml) was incubated in 20 mM KH2PO4 pH 8.5 with 50 nM estradiol (including 800 000 cpm/ml of ^3H-estradiol) and 1 mM NADH for 30 min at RT, in the presence of the potential inhibitor at concentrations 1 μM or 0.1 μM. Inhibitor stock solutions were prepared in DMSO. Final concentration of DMSO was adjusted to 1% in all samples. The enzyme reaction was stopped by addition of 10% trichloroacetic acid (final concentration). Samples were centrifuged in a microtiter plate at 4000 rpm for 10 min. Supernatants were applied to reverse phase HPLC on a Waters Symmetry C18 column, equipped with a Waters Sentry Guard column. Isocratic HPLC runs were performed at RT at a flow rate of 1 ml/min in acetonitrile:water 48:52 as running solvent. Radioactivity was monitored in the eluate by a Packard Flow Scintillation Analyzer. Total radioactivity for estrone and estradiol were determined in each sample and percent conversion of estradiol to estrone was calculated according to the following formula:
as §1

As usually defined, the inhibition is the relative decrease from the control value, in per cent. Turning to `COc1ccc2c(c1)CCC1C2CC[C@]2(C)c3n[nH]cc3[C@@H](CCC(=O)Nc3ncc(C)s3)C12` (stereo partly drawn) [Compound 50, 3-((6aS,10S)-2-Methoxy-6a-methyl-4b,5,6,6a,8,10,10a,10b,11,12-decehydro-7,8-diaza-pentaleno[2,1-1]phenanthren-10-yl}-N-(5-methylthiazol-2-yl)propanamide], the “In vitro metabolic stability, % remaining after 60 min” value in series [1] was found to be 88%. For the same compound, the results for the inhibition at 1 µM in series [2] and in series [3] were 78% and 0%, respectively. As to `Cc1cnc(NC(=O)CC[C@@H]2c3c[nH]nc3[C@@]3(C)CCC4c5ccc(O)cc5CCC4C23)s1` (stereo partly drawn) [Compound 51, 3-((6aS,10S)-2-Hydroxy-6a-methyl-4b,5,6,6a,8,10,10a,10b,11,12-decehydro-7,8-diaza-pentaleno[2,1-1]phenanthren-10-yl}-N-(5-methylthiazol-2-yl)propanamide], the “In vitro metabolic stability, % remaining after 60 min” value in series [1] came to 46%. The inhibition at 1 µM in series [2] worked out at 82%; in series [3], 15%.

Consider `Cc1cnc(NC(=O)CC[C@@H]2c3c[nH]nc3[C@@]3(C)CCC4c5cc(C(C)(C)C)c(O)cc5CCC4C23)s1` (stereo partly drawn) [Compound 53, 3-((6aS,10S)-3-tert-Butyl-2-hydroxy-6a-methyl-4b,5,6,6a,8,10,10a,10b,11,12-decehydro-7,8-diaza-pentaleno[2,1-1]phenanthren-10-yl}-N-(5-methylthiazol-2-yl)propanamide], for which the “In vitro metabolic stability, % remaining after 60 min” value in series [1] is listed as 100%. For the same compound, the inhibition at 1 µM in series [2] is 76%; in series [3] it was 13%. Consider `Cc1cnc(NC(=O)CC[C@@H]2c3c[nH]nc3[C@@]3(C)CCC4c5cc([N+](=O)[O-])c(O)cc5CCC4C23)s1` (stereo partly drawn) [Compound 55, 3-((6aS,10S)-2-Hydroxy-6a-methyl-2-nitro-4b,5,6,6a,8,10,10a,10b,11,12-decehydro-7,8-diaza-pentaleno[2,1-1]phenanthren-10-yl}-N-(5-methylthiazol-2-yl)propanamide], for which the “In vitro metabolic stability, % remaining after 60 min” value in series [1] is 86%. For the same compound, the inhibition at 1 µM came out at 69% in series [2] and 7% in series [3]. For `Cc1cnc(NC(=O)CC[C@@H]2C/C(=N\O)[C@@]3(C)CCC4c5ccccc5CCC4C23)s1` (stereo partly drawn) [Compound 59, 3-{(13S,15R)-17-[(E)-hydroxyimino]-13-methyl-7,8,9,11,12,13,14,15,16,17-decahydro-6H-cyclopenta[a]phenanthren-15-yl}-N-(5-methylthiazol-2-yl)propanamide], in series [1], the “In vitro metabolic stability, % remaining after 60 min” value amounted to 100%. Further, the inhibition at 1 µM in series [2] worked out at 93%; in series [3] it was 2%. With `Cc1cnc(NC(=O)CC[C@@H]2C/C(=N\O)[C@@]3(C)CCC4c5cc([N+](=O)[O-])c(O)cc5CCC4C23)s1` (stereo partly drawn) [Compound 60, 3-{(13S,15R)-3-Hydroxy-2-nitro-17-[(E)-hydroxyimino]-13-methyl-7,8,9,11,12,13,14,15,16,17-decahydro-6H-cyclopenta[a]phenanthren-15-yl}-N-(5-methylthiazol-2-yl)propanamide], the “In vitro metabolic stability, % remaining after 60 min” value in series [1] came to 84%. Consider `Cc1cnc(NC(=O)CC[C@@H]2C/C(=N\O)[C@@]3(C)CCC4c5ccc(O)c(Br)c5CCC4C23)s1` (stereo partly drawn) [Compound 63, 3-{(13S,15R)-4-Bromo-3-hydroxy-17-[(E)-hydroxyimino]-13-methyl-7,8,9,11,12,13,14,15,16,17-decahydro-6H-cyclopenta[a]phenanthren-15-yl}-N-(5-methylthiazol-2-yl)propanamide], for which the “In vitro metabolic stability, % remaining after 60 min” value in series [1] is reported as 64%. For `Cc1cnc(NC(=O)CC[C@@H]2C/C(=N\O)[C@@]3(C)CCC4c5cc(Br)c(O)c(Br)c5CCC4C23)s1` (stereo partly drawn) [Compound 64, 3-{(13S,15R)-2,4-Dibromo-3-hydroxy-17-[(E)-hydroxyimino]-13-methyl-7,8,9,11,12,13,14,15,16,17-decahydro-6H-cyclopenta[a]phenanthren-15-yl}-N-(5-methylthiazol-2-yl)propanamide], in series [1], the “In vitro metabolic stability, % remaining after 60 min” value is recorded as 95%.

For `CO/N=C1\C[C@@H](CCC(=O)Nc2ncc(C)s2)C2C3CCc4cc(O)ccc4C3CC[C@]12C` (stereo partly drawn) [Compound 73, 3-{(13S,15R)-3-Hydroxy-17-[(E)-methoxyimino]-13-methyl-7,8,9,11,12,13,14,15,16,17-decahydro-6H-cyclopenta[a]phenanthren-15-yl}-N-(5-methylthiazol-2-yl)propanamide], the “In vitro metabolic stability, % remaining after 60 min” value in series [1] worked out at 73%. In the case of `CO/N=C1\C[C@@H](CCC(=O)Nc2ncc(C)s2)C2C3CCc4cc(O)c(C(C)(C)C)cc4C3CC[C@]12C` (stereo partly drawn) [Compound 76, 3-{(13S,15R)-2-tert-Butyl-3-hydroxy-17-[(E)-methoxyimino]-13-methyl-7,8,9,11,12,13,14,15,16,17-decahydro-6H-cyclopenta[a]phenanthren-15-yl}-N-(5-methylthiazol-2-yl)propanamide], the “In vitro metabolic stability, % remaining after 60 min” value in series [1] was determined as 100%. Take `CO/N=C1\C[C@@H](CCC(=O)Nc2ncc(C)s2)C2C3CCc4cc(O)c(Br)cc4C3CC[C@]12C` (stereo partly drawn) [Compound 85, 3-{(13S,15R)-2-Bromo-3-hydroxy-17-[(E)-methoxyimino]-13-methyl-7,8,9,11,12,13,14,15,16,17-decahydro-6H-cyclopenta[a]phenanthren-15-yl}-N-(5-methylthiazol-2-yl)-propanamide]: the “In vitro metabolic stability, % remaining after 60 min” value in series [1] was found to be 34%. On the same count and under the same terms, under `CO/N=C1\C[C@@H](CCC(=O)Nc2ncc(C)s2)C2C3CCc4cc(O)c(Cl)cc4C3CC[C@]12C` (stereo partly drawn) [Compound 88, 3-{(13S,15R)-2-Chloro-3-hydroxy-17-[(E)-methoxyimino]-13-methyl-7,8,9,11,12,13,14,15,16,17-decahydro-6H-cyclopenta[a]phenanthren-15-yl}-N-(5-methylthiazol-2-yl)propanamide] stands 94%.
